The molecules below were run against T1, USP5 (Homo sapiens, UniProt P45974) (assay: USP5 activity assay (Ub-AMC)). Settings: 400 nM Ub-AMC, 300 pM enzyme, 30 min pre-incubation, 60 min at 37° C., sigmoidal fit; read-out: USP5 (inhibition of cysteine protease activity).
T1 sequence (P45974 1-858): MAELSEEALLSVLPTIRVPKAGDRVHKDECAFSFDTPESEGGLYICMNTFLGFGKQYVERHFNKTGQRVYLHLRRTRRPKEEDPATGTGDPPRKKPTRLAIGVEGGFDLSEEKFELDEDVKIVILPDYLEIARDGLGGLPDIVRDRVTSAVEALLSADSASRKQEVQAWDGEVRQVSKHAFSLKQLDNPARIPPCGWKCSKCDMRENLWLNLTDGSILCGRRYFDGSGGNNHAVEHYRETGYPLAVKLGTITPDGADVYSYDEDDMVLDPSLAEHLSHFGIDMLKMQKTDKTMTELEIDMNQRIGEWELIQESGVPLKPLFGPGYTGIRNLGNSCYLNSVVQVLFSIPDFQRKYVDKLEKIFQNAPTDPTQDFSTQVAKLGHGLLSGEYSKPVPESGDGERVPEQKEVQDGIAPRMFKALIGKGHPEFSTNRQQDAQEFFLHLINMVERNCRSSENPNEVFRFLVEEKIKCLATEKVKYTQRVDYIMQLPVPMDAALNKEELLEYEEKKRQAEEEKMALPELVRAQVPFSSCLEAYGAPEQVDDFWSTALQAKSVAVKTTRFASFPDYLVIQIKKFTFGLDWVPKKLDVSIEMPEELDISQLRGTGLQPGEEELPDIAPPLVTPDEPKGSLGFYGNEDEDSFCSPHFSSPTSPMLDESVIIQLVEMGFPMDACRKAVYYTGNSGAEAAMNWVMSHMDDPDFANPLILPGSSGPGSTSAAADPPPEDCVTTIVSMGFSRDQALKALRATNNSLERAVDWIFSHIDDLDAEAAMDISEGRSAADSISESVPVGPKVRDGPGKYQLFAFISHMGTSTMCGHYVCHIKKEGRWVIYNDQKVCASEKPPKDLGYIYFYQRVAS
Assay type: biochemical
Procedure: USP5 was diluted in USP buffer (50 mM Tris HCl; 0.5 mM EDTA; 5 mM DTT; 0.01% Triton X-100; Bovine Serum Albumin 0.05 mg.ml^−1 pH7.6). Compounds stocks (100 mM) were stored at −20° C. in DMSO.
Reactions were performed as duplicates in Black LJL 96 well plates (HE microplates; Molecular Devices; 20 μl final reaction volume). The substrate concentration for USP5 was 400 nM Ub-AMC (Boston Biochem). The concentrations of the enzyme (USP5) in specificity assays was 300 pM. The concentrations were determined in order to perform specificity assays under initial velocities at fixed substrate concentration. Compounds were pre-incubated with enzymes for 30 minutes at 25° C. Reactions were initiated by addition of substrate to the plates containing the enzymes (+/−compounds) diluted in assay buffer. Reactions were incubated for 60 minutes at 37° C. Reactions were stopped by adding acetic acid (100 mM final). Readings were performed on a Pherastar Fluorescent Reader (BMG). λ Emission 380 nm; λ Excitation=460 nm. Data (mean values +/−standard deviation) were analyzed as % of control (no compound) and plotted as percentage versus the Log of the compound concentration using GraphPad (Prism). Data were fitted to a sigmoidal model (variable slope).

Compound	IC50 [nM]
CON=C1c2ccccc2-c2nn3c(C)nnc3nc21 (mixture of isomers) [5a, 3-Methyl-1,2,3a,4,10-pentaaza-cyclopenta[b]fluoren-9-one O-methyl-oxime]	1800
C=CCON=C1c2ccccc2-c2nn3c(C)nnc3nc21 (mixture of isomers) [5b, 3-Methyl-1,2,3a,4,10-pentaaza-cyclopenta[b]fluoren-9-one O-allyl-oxime]	1150
C=CCON=C1c2ccccc2-c2nn3c(CCCC)nnc3nc21 (mixture of isomers) [5d, 3-Butyl-1,2,3a,4,10-pentaaza-cyclopenta[b]fluoren-9-one O-allyl-oxime]	1420
CCCCCCCCCCON=C1c2ccccc2-c2nn3nnnc3nc21 (mixture of isomers) [8a, 1,2,3,3a, 4,10-Hexaaza-cyclopenta[b]fluoren-9-one O-decyl-oxime]	54000
c1ccc(OCCCON=C2c3ccccc3-c3nn4nnnc4nc32)cc1 (mixture of isomers) [8c, 1,2,3,3a,4,10-Hexaaza-cyclopenta[b]fluoren-9-one O-(3-phenoxy-propyl)-oxime]	470
C=CCON=C1c2ccccc2-c2nn3c(CC)nnc3nc21 (mixture of isomers) [10f, 3-Ethyl-1,2,3a,4,10-pentaaza-cyclopenta[b]fluoren-9-one O-allyl-oxime]	1200

— US20100048575A1, “NOVEL TETRACYCLIC INHIBITORS OF CYSTEINE PROTEASES, THE PHARMACEUTICAL COMPOSITIONS THEREOF AND THEIR THERAPEUTIC APPLICATIONS” (priority 2006, published 2010)
